Measurements as given in ChEMBL document CHEMBL1201862, “PubChem BioAssay data set” (2004).
The source made the active and inactive calls.

Legend:
cells [1] = type: functional, cell-based
cells [2] = type: functional, cell-based; remark: listed apart in the source
Estrogen receptor = target: T1, Estrogen receptor (Homo sapiens, UniProt P03372);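 note: potency for inhibiting coactivator peptide recruitment to the receptor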
T1 sequence (P03372 whole entry): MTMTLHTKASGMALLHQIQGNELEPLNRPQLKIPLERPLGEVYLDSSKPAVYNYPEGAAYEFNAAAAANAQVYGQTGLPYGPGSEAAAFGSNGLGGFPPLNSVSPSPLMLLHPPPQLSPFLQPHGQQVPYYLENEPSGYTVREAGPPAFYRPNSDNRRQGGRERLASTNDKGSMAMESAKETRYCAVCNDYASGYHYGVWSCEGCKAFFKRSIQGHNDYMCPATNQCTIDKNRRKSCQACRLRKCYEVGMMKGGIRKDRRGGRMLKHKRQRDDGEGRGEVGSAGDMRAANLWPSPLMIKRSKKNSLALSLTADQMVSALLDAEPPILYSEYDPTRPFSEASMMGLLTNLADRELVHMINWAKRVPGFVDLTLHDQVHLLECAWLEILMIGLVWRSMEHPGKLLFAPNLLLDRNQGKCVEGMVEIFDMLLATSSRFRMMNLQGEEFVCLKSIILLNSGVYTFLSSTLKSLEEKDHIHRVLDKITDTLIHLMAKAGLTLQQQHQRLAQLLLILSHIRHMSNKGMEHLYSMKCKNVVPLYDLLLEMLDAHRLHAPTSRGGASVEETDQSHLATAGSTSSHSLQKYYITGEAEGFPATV

[3] = target: T2, Heat shock factor protein 1 (Mus musculus, UniProt P38532); test: HSF1 potentiators in luciferase reporter cells, confirmation, cell-based, NIH3T3, luminescence, dose retest (AID 435004); type: functional;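 note: stress induced by proteasome inhibitor MG132 added 30 min after compound; luciferase reporter driven by HSF1 response element in NIH3T3 cells; actives raise luminescence as potentiators of the MG132 stress response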
T2 sequence (P38532 whole entry): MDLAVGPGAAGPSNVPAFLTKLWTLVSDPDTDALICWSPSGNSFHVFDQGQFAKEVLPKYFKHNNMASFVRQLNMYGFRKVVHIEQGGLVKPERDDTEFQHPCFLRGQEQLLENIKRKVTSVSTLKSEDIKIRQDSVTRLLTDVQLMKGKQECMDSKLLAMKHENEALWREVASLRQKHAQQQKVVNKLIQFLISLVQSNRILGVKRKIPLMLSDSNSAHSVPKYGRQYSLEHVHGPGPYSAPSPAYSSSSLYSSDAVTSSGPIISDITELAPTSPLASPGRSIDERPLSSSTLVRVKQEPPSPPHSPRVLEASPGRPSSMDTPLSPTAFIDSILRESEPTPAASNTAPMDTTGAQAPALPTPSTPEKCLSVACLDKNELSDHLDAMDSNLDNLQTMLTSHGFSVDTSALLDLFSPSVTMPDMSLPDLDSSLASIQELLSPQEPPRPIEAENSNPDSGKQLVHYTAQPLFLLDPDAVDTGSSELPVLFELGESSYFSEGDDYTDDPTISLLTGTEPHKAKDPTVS

Coagulation factor XII = target: T3, Coagulation factor XII (Homo sapiens, UniProt P00748); type: functional;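 note: activated factor XIIa alpha cleaving a fluorogenic AMC peptide substrate; inhibitor potency from loss of enzyme activity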
T3 sequence (P00748 whole entry): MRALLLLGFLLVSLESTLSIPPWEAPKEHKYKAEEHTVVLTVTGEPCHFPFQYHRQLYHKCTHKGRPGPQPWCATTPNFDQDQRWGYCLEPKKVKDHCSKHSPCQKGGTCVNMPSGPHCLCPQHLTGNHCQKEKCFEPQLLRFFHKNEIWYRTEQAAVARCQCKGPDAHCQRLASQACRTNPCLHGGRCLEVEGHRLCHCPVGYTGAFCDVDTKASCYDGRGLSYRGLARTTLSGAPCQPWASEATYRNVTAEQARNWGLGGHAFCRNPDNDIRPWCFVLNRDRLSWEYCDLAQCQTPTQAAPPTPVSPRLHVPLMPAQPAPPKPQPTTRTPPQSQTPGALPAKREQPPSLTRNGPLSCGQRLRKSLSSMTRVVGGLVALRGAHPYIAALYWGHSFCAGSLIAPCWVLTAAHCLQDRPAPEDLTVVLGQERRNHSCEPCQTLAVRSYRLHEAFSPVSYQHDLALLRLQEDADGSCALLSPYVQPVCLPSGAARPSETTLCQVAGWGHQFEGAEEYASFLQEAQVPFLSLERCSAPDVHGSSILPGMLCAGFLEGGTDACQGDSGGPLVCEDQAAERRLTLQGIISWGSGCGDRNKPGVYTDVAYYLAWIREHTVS

[4] = inhibitors of intracellular T. cruzi replication, confirmation, NIH3T3 host cells, beta-gal luminescence (AID 2044); type: functional, cell-based;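 note: intracellular parasites grown in NIH/3T3 mouse fibroblasts as host cells; luminescent beta-galactosidase reporter signal from transgenic T. cruzi replicating inside host cells; inhibitors lower the luminescence signal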
[5] = cytotoxicity toward NIH3T3 fibroblasts, dose response, counter-screen, cell-based, ATP luminescence, mouse fibroblasts (AID 2010); type: functional;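 note: cells exposed to compound for about 90 hours before reading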
[6] = Luminescence Cell-Based Dose Retest to Confirm Inhibitors of Cancer Stem Cells. [Related pubchem assays (depositor defined):AID2717, AID2721]; type: functional; settings: Homo sapiens
[7] = target: T4, Ubiquitin-conjugating enzyme E2 N (Homo sapiens, UniProt P61088); type: functional;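 note: Dose-response confirmation in a TR-FRET assay detecting UBC13-driven polyubiquitin chain formation, inhibition measured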
T4 sequence (P61088 whole entry): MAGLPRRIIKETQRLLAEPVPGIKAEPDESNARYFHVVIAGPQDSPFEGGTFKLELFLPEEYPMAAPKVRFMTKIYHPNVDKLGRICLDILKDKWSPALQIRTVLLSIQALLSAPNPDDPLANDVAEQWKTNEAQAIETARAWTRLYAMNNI

[8] = target: T5, Replicative DNA helicase DnaB (Mycobacterium tuberculosis, UniProt P9WMR3); test: DnaB intein splicing inhibitors, dose response, biochemical, cell-free fluorescence (AID 449749); type: functional
T5 sequence (P9WMR3 whole entry): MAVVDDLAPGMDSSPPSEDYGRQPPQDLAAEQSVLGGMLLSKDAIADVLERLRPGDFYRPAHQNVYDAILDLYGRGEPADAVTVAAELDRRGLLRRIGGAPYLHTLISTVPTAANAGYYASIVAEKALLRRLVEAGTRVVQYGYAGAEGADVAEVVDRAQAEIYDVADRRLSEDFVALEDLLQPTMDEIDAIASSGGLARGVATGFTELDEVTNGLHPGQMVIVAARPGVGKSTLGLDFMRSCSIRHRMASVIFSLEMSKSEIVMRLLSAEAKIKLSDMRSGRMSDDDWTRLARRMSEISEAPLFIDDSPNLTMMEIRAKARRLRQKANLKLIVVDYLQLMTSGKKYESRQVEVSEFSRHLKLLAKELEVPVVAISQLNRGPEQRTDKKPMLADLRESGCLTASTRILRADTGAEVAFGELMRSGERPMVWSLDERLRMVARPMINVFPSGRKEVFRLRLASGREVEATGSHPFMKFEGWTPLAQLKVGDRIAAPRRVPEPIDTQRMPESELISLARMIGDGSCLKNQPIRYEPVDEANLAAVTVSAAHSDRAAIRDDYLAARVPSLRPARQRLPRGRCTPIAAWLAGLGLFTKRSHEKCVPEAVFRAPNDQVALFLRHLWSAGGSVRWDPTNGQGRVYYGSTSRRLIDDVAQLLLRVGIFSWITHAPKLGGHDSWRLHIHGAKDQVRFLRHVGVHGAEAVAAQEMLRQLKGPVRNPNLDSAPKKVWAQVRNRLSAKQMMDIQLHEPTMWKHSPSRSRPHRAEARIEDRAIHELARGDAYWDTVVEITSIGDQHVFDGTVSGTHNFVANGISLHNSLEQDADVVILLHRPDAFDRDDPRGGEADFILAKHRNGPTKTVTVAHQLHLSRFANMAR

Protein RecA = target: T6, Protein RecA (Mycobacterium tuberculosis, UniProt P9WHJ3); test: Fluorescence Cell-Free Homogeneous Dose Retest to Identify Inhibitors of RecA-Intein Splicing Activity. [Related pubchem assays (depositor defined):AID2097, AID2223, AID489010, AID492950]; type: functional
T6 sequence (P9WHJ3 whole entry): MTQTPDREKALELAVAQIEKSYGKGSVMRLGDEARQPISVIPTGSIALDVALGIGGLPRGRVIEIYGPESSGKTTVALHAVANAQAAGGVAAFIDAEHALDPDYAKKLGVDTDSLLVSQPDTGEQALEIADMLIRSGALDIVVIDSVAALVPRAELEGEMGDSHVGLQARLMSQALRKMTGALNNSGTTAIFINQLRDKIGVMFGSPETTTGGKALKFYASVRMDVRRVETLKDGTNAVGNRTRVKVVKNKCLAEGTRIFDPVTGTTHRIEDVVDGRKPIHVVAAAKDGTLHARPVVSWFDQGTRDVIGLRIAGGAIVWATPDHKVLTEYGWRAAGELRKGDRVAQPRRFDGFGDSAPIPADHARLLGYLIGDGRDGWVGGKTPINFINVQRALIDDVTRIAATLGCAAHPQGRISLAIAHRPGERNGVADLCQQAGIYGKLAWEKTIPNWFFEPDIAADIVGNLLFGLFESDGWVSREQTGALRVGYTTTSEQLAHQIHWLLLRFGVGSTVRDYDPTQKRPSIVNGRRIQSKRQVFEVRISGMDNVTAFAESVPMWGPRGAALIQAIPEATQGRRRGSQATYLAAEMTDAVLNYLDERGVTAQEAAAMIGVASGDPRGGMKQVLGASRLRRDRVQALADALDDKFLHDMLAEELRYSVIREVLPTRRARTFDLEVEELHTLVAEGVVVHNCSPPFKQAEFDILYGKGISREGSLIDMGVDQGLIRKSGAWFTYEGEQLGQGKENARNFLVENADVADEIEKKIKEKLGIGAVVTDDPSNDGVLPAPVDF

INS1 = test: beta cell apoptosis inhibitors, cytokine rescue, dose response, luminescence, retest (AID 449756); type: functional, cell-based; settings: Rattus norvegicus;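 note: cell death triggered by IL-1 beta plus TNF-alpha plus IFN-gamma mixture; protective hits raise ATP signal compared with cytokine alone wells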
[9] = target: 26S proteasome non-ATPase regulatory subunit 14 (Homo sapiens, UniProt O00487); test: inhibition of proteasome subunit RPN11 – biochemical, fluorescence polarization, uHTS hits, confirmation (AID 602368); type: functional
Chain of 26S proteasome non-ATPase regulatory subunit 14 (O00487 whole entry): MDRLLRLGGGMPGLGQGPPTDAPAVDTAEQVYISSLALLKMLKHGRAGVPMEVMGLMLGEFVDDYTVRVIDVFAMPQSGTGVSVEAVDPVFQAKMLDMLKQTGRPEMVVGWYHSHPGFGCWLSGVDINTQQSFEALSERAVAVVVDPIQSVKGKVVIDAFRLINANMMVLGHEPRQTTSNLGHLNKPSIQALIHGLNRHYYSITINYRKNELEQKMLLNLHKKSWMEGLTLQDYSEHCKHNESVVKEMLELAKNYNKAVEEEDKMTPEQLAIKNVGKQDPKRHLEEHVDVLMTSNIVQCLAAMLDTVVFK

[10] = target: 72 kDa type IV collagenase (Homo sapiens, UniProt P08253); test: Dose Response validation of uHTS RPN11 inhibitor hits using a MMP-2 Fluorescence assay.; type: functional
Chain of 72 kDa type IV collagenase (P08253 whole entry): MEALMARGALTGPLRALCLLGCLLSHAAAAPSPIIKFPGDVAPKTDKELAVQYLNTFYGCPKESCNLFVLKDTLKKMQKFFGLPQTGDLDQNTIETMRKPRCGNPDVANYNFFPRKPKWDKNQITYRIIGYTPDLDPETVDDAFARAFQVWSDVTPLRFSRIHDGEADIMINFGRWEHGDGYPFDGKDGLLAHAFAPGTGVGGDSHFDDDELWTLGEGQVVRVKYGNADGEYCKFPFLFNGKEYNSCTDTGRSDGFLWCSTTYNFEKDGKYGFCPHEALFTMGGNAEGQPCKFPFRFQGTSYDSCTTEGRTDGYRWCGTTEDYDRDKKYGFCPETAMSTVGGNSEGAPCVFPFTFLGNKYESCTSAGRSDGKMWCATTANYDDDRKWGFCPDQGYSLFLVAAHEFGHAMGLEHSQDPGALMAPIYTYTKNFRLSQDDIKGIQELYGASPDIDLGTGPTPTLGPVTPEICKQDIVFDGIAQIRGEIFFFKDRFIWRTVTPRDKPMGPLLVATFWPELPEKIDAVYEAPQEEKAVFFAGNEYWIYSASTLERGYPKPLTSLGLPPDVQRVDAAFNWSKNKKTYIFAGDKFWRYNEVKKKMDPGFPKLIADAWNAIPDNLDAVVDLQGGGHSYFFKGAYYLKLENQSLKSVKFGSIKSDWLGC

Prothrombin = Prothrombin (Bos taurus, UniProt P00735); test: thrombin inhibition, dose response, biochemical, fluorescence polarization, uHTS hits (AID 602369); type: functional
[11] = intracellular Trypanosoma cruzi inhibitors in host cells – cell-based, plate reader, cherry-pick samples, set 3, dose response (AID 651818); type: functional;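 note: compounds incubated with infected cells for about four days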
[12] = target: DNA dC->dU-editing enzyme APOBEC-3G (Homo sapiens, UniProt Q9HC16); test: Dose Response confirmation of small molecule APOBEC3G DNA Deaminase Inhibitors via a fluorescence-based single-stranded DNA deaminase assay. [Related pubchem assays (depositor defined):AID493012, AID493028]; type: functional
Chain of DNA dC->dU-editing enzyme APOBEC-3G (Q9HC16 whole entry): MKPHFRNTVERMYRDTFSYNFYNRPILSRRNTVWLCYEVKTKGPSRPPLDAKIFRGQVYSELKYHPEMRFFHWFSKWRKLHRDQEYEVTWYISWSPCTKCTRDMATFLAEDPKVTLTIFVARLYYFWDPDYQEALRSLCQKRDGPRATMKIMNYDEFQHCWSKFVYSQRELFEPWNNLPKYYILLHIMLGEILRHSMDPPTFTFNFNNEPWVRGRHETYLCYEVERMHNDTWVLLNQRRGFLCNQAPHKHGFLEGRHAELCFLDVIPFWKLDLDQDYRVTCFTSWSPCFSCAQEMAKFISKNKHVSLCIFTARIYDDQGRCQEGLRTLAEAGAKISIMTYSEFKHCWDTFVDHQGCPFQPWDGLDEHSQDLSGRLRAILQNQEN

Compound: CCOC(=O)c1c(S(=O)(=O)N2CCCC2)c(C)n(C)c1C
- EC50 (cells [1]): > 350 µM (not active)
- EC50 (cells [2]): > 350 µM (not active)

Compound: COc1ccc(N(CN2C(=O)C3C4C=CC(C4)C3C2=O)C(=O)c2ccco2)cc1 (configuration not stated)
- IC50 (Estrogen receptor): > 50 µM (not active)

Compound: O=S1(=O)c2cccc3cccc(c23)N1Cc1nnc(-c2ccccc2Br)o1
- EC50 [3]: 34.6 µM (active)

Compound: CC(C)CC(=O)Nc1ccc(C(=O)COc2ccc(-c3nnco3)cc2)cc1
- IC50 (Estrogen receptor): 22.3 µM (active)

Compound: COC(=O)c1ccc(CSc2nc3c(cnn3-c3ccc(C)c(C)c3)c(=O)[nH]2)o1
- IC50 (Estrogen receptor): 38.5 µM (not active)

Compound: CCN(Cc1ccccc1)C(=O)C1CCN(C/C(C)=C/c2ccccc2)CC1
- EC50 [3]: > 260 µM (inactive)

Compound: CCOC(=S)SCC(=O)Nc1nc(C)c(C)s1
- EC50 [3]: 7.81 µM (active)

Compound: Cc1ccc(NC2CCCN(C(=O)C3CCCCC3)C2)cc1C (configuration not stated)
- EC50 (cells [1]): > 350 µM (not active)
- EC50 (cells [2]): > 350 µM (not active)

Compound: Cc1ccc(C(=O)NCCN2CCNC2=O)cc1
- IC50 (Coagulation factor XII): > 50 µM (inactive)

Compound: O=C(C1CCC(CNS(=O)(=O)c2cccc3nsnc23)CC1)N1CCN(c2ccccn2)CC1 (configuration not stated)
- EC50 [3]: > 260 µM (inactive)

Compound: CCCCCc1cc(=O)oc2c(C(CCN3CCCC(C)C3)c3ccc(OC)cc3)c(OC)cc(OC)c12 (configuration not stated)
- EC50 [4]: 1.6 µM (active)
- EC50 [5]: 7.56 µM (active)
- AC50 [6]: 3.25 µM (active)
- IC50 [7]: > 20 µM (inactive)
- AC50 [8]: 4.78 µM (active)
- EC50 (Protein RecA): 12 µM (active)
- AC50 (INS1): 7.46 µM (active)

Compound: CCN(CC)CCCNC(=O)C1c2ccccc2C(=O)N(C)C1c1ccc(OC)cc1 (configuration not stated)
- EC50 (cells [1]): > 350 µM (not active)
- EC50 (cells [2]): > 350 µM (not active)

Compound: COc1ccccc1CNC(=O)c1csc(Cc2ccc(Cl)cc2)n1
- EC50 [3]: > 260 µM (inactive)

Compound: CCN1C(=O)c2[nH]nc(C(=O)OC)c2C1=O
- IC50 (Coagulation factor XII): > 50 µM (inactive)

Compound: COc1ccc(Cc2nc3ccc(S(=O)(=O)N4CCOCC4)cc3[nH]2)cc1
- IC50 (Estrogen receptor): > 50 µM (not active)

Compound: CCC(CC)COC(=O)C1=C(C)NC(=O)NC1c1cc(OC)ccc1OC (configuration not stated)
- EC50 [3]: > 260 µM (inactive)

Compound: Cc1cc(C)n(C(=O)CNc2cccc(Cl)c2C)n1
- IC50 (Coagulation factor XII): > 50 µM (inactive)

Compound: CC(=O)C1=C(O)C(=CC=Cc2ccccc2)OC1=O
- IC50 [9]: 35.2 µM (active)
- IC50 [10]: > 100 µM (inactive)
- IC50 (Prothrombin): 50.4 µM (active)

Compound: C[C@@H]1CN([C@@H](C)CO)C(=O)c2cccc(NS(=O)(=O)c3cccs3)c2O[C@H]1CN(C)Cc1ccc(C(=O)Nc2ccccc2N)cc1
- AC50 [11]: 5.68 µM (active)

Compound: C[C@H](CO)N1C[C@H](C)[C@H](CN(C)S(=O)(=O)c2ccc(Cl)cc2)Oc2c(NC(=O)CCCCCC(=O)Nc3ccccc3N)cccc2C1=O
- AC50 [11]: 1.95 µM (active)

Compound: C[C@@H]1CCCCO[C@@H](CN(C)S(=O)(=O)c2cccs2)[C@@H](C)CN([C@H](C)CO)C(=O)c2cc(NC(=O)Nc3ccc(C(F)(F)F)cc3)ccc2O1
- AC50 [11]: 4.19 µM (active)

Compound: CN(C)CCCOc1ccc(/C=N/NC(=O)CCCCCCC(=O)Nc2ccccc2O)cc1
- AC50 [11]: 1.29 µM (active)

Compound: C[C@@H]1CN([C@H](C)CO)C(=O)Cc2cc(NC(=O)CCCCCC(=O)Nc3ccccc3N)ccc2O[C@@H]1CN(C)Cc1ccc(Cl)c(Cl)c1
- AC50 [11]: 4.01 µM (active)

Compound: O=C(CC1Sc2ncnn2C1=O)Nc1ccc(Br)cc1 (configuration not stated)
- IC50 [12]: 55.8 µM (active)

Compound: CC/N=C1\SC(CC(=O)NC(C)C)C(=O)N1CC (configuration not stated)
- EC50 (cells [1]): > 350 µM (not active)
- EC50 (cells [2]): > 350 µM (not active)
